Converted amounts (≈) assume the structure as drawn. “And” between values parts separate entries of the source, which are not always exact repeats. Identical values can stand only once. Like-named read-outs stand apart in the source and are kept apart here. A value given as a limit tells only on which side of the number the result lay.

The values below come from publication PMC9234961 (Journal of Medicinal Chemistry, 2022).

Series [1] can be described thus: in vitro. The series is classed as in vitro ADME. As to conditions: bovine; fraction unbound in OCI-Ly1 DC50 assay medium; read-out: fu,media.
In series [2] the target is T1, human BCL6 BTB domain (Homo sapiens, UniProt P41182). The experiment in a line: biochemical.
Series [3] in a line: Microsomal clearance assay (MLM). The series is classed as in vitro ADME. As to conditions: female, CD1, pH 7.4; mouse liver microsomes, 1 μM compound. The protocol: (§1) 6. Supplementary experimental: in vitro DMPK assays
(§2) 6.1 Microsomal clearance assay
(§3) Microsomal clearance was determined in female CD1 mice, female Sprague–Dawley rats, and mixed gender human liver microsomes obtained from BioIVT (Peterborough, U.K.) following incubation of 1 μM compound at 37 °C in 0.5 mg/mL microsomal protein, 3 mmol/L MgCl2, 1 mmol/L NADPH, 2.5 mmol/L and 10 mmol/L phosphate buffer (pH 7.4) (all purchased from Sigma-Aldrich, Gillingham, U.K). Reactions were started by addition of the cofactors following 10 min preincubation of microsomes with test compound and were terminated at −1, 0, 5, 10, 15, and 30 min with three volumes of ice-cold methanol containing internal standard. Samples were centrifuged at 2800g for 30 min at 4 °C and the supernatants analyzed.
(§4) Control incubations were prepared as above with omission of cofactors. Compound measurements were […]
(§5) separation with a 3 min gradient of 0.1% formic acid in methanol on a Kinetex C18, 50 × 2.1 mm 2.6 μm UPLC column (Phenomenex, Macclesfield, UK). […]
For orientation: Liver microsomes are a subcellular fraction often used to study metabolism.

A short description of series [4]: Microsomal clearance assay (RLM). The series is classed as in vitro ADME. As to conditions: rat liver microsomes, 1 μM compound; for microsomal CLint at 1 μM: female, Sprague-Dawley, pH 7.4. The protocol:
as §1, §2, §3, §4, §5

The nature of series [5]: logD7.4 assay (Chrom log D method). The series is classed as physicochemical. As to conditions: pH 7.4, read-out: Measured logD7.4. The protocol:
Calibration, validation and in-house compounds were prepared at 1mM in 10% DMSO / 90% Trizma solution (100mM Trizma in 75/25 methanol/water). 3 µL standard injections (with needle wash) of all calibration, validation and in-house samples were made onto a Phenomenex Luna C8 column (3µm, 100 x 4.6 mm, 100A, Phenomenex, Torrence, USA). Chromatographic separation at 30°C was carried out using […]
2 mL/min. The gradient was held at 0:100 water:organic for 0.8 minutes, then returned to the starting conditions of 95:5 water:organic for 0.2 minutes. The column was re-equilibrated for 5 minutes at the […]

A short description of series [6]: in vitro. Type of series: in vitro ADME. As to conditions: pH 7.4, 10 µM, 16 h at 30 °C.
Series [7] has as its target endogenous BCL6 in OCI-Ly1 cells (Homo sapiens, UniProt P41182). As to the kind of experiment: cell-based. As to conditions: for MSD degrader assay [OCI-Ly1] Dmax: mean maximal degradation of BCL6; for degradation of BCL6 (in words): OCI-Ly1 MSD assay.
The nature of a further series: NMR solubility assay. The series is classed as physicochemical. As to conditions: pH 8, aqueous buffer, kinetic from dmso stock; read-out: Aq. Sol. The protocol: 4. Supplementary experimental: physicochemical assays
0.5 mM TCEP, 10% D2O) was pipetted into the same well and mixed by up-down pipetting 3 times to create […]
It was then separated by centrifugation (1000 rpm
The plate was then sealed and incubated at room temperature for 20 hours, […]
165 µL of the supernatant was transferred to a 3 mm NMR tube (Bruker, Part No. Z112272) using liquid handler SamplePro Tube SJ S (Bruker). The concentration of the solubilized compound in solubility sample is measured by quantitative 1H-NMR using a single external standard (200 µM caffeine (Sigma, C1778) in PBS (pH 7.4) with 1% DMSO-d6).
The detail of the NMR method is as following: NMR data was collected on a Bruker Avance Neo 600 spectrometer equipped with a 5 mm TCI-CryoProbe. The 1H spectrum was referenced to the internal deuterated solvent. The operating frequency for 1H was 600 MHz. All NMR data were acquired at the […]
1H-NMR spectrum was acquired using a Bruker standard 1D lc1pngppsf2 pulse sequence with 32 scans.
The sweep width was 6.2 ppm with O1P set to 8.8 ppm, and the FID contained 16k time-domain data points. Relaxation delay was set to 20 sec. Water signal was suppressed. […]

A short description of series [8]: Microsomal clearance assay (HLM). The series is classed as in vitro ADME. As to conditions: human liver microsomes, 1 μM compound; for microsomal CLint at 1 μM: both sexes, pH 7.4. The protocol: as §1, §2, §3, §4, §5
Another series deals with BCL6 in Karpas 422 cells (Homo sapiens, UniProt P41182). The experiment in a line: cell-based. As to conditions: read-out: MSD degrader assay [Karpas 422] DC50; Karpas 422 cells. The protocol:
3.2 Mesoscale Discovery (MSD) Degradation Assay
An MSD assay was developed for screening of compounds to determine the degradation of endogenous BCL6 in OCI-Ly1 cells. Briefly, test compounds in DMSO or DMSO alone to a total of 1332.5 nL/well were dispensed to a 96-well Nunc™ Edge 2 plate (ThermoFisher Scientific, 267544) using an Echo® 550 acoustic […]
supplemented with 10% heat-inactivated fetal bovine serum (Sera Plus, PAN Biotech, P30-3702) were […]
incubation at 37 °C + 5% CO2 the plate was centrifuged at 300 x g for 5 minutes. […]
plate washer for all wash and aspiration steps, media was removed and cells were rinsed with PBS, centrifuged as before and PBS removed. Cells were lysed in 50 µL ice-cold lysis buffer at pH 7.4 containing 50 mM Tris-HCl, 150 mM NaCl, 1 % Triton X-100 (v/v), 1 mM PMSF, 1 mM activated sodium vanadate, 1 mM EDTA, phosphatase inhibitors 2 and 3 (1:50 dilution) and protease inhibitor cocktail (1:100 dilution).
20 °C or continuing the assay. A 96-well MSD standard bind plate (MSD, L15XA-3) which was coated overnight with 1 µg/mL anti-human BCL6 goat antibody in PBS (R&D Systems, AF5046) was blocked in 3% BSA in TBS + 0.1% Tween-20 for 1 hour with shaking. Wells were emptied thoroughly before 40 µL/well of lysate was transferred from the cell plate. The MSD plate was incubated at RT for 1 hour with shaking then washed three times with TBS + 0.1 % Tween-20. Antibodies were prepared in TBS + 0.1% Tween-20 + 1% BSA. Anti-human BCL6 rabbit antibody (Cell Signalling Technology, 14895S) was added at 1:100 dilution at 25 µL/well. The plate was incubated and washed as before. MSD Sulfo-tag anti-rabbit detection antibody (MSD, R32AB-1) at 1:1000 dilution at 25 µL/well was added. The plate was incubated and washed as before and MSD Gold read buffer (MSD R92TG) at 1:1 dilution with water at 150 µL/well was added. The plate was read within 10 minutes on the MSD Quickplex reader. The % inhibition at each […]
3.3 Cell proliferation assay
Aldrich) supplemented with 10% FBS (Gibco). […]
transferred onto the cells.
Assay plates containing cells […]

For the next series, the system named is SU-DHL-4. The experiment in a line: Cell proliferation assay (14 days), SU-DHL-4. As to conditions: Homo sapiens, SU-DHL-4, 336 h, read-out: SU-DHL-4 GI50.
Series [9] addresses T1, human BCL6 BTB domain.
The subject of another series is OCI-Ly3. The experiment in a line: Cell proliferation assay (14 days), OCI-Ly3. As to conditions: Homo sapiens, OCI-Ly3, 336 h, read-out: OCI-Ly3 GI50.
The test system of a further series is Karpas 422. The experiment in a line: Cell proliferation assay (14 days), Karpas 422. As to conditions: Homo sapiens, KARPAS-422, 336 h, read-out: Karpas 422 GI50.
A further series deals with HT. As to the kind of experiment: Cell proliferation assay (14 days), HT. As to conditions: Homo sapiens, HT, 336 h, read-out: HT GI50.
Another series deals with OCI-Ly1. The experiment in a line: Cell proliferation assay (14 days), OCI-Ly1. As to conditions: Homo sapiens, OCI-Ly1, 336 h, read-out: OCI-Ly1 GI50.
Where [10] appears, read: BCL6 TR-FRET IC50 individual replicates, single replicate values.
[11] abbreviates: OCI-Ly1, read-out: MSD degrader assay [OCI-LY1] Dmax individual replicates, single replicate values.
Setting [12] is: OCI-Ly1, read-out: MSD degrader assay [OCI-Ly1] Dmax, mean maximal degradation of BCL6, OCI-Ly1 cells, 2 h.
Where [13] appears, read: read-out: MSD degrader assay [OCI-LY1] DC50 individual replicates, single replicate values.
Where [14] appears, read: read-out: MSD degrader assay [OCI-Ly1] DC50, geometric mean, OCI-Ly1 cells, 2 h incubation.

Protocol for HT: (§6) Cells were seeded in 96-well culture plates at a density of 2500 cells/well in RPMI-1640 medium (Sigma-
(§7) Aldrich) supplemented with 10% FBS (Gibco). Compounds were initially dispensed into 96-well U-bottom
(§8) plates using an Echo 550 acoustic dispenser (Labcyte Inc.), then diluted in RPMI-1640 medium and
(§9) transferred onto the cells. Cells were treated with 8 compound concentrations in duplicate, ranging from
(§10) with compound for 14 days, with medium changes at days 3, 7 and 10 carried out as follows: fresh 96-well
(§11) cell culture plates were prepared containing 100 µl medium plus compound at the assay concentrations
(§12) (white plates were used on day 10 to optimise luminescence measurement). Assay plates containing cells
(§13) were vortexed to mix and cell density in one control well was counted using a Coulter Z2 cell counter
(§14) (Beckman Coulter). The volume of medium containing 2500 cells in the control well was calculated and this volume of cells was transferred from every well of the assay plates to the corresponding well of the fresh plates containing compound. After 14 days, CellTiter Glo reagent (Promega) was added to the medium in each well of the assay plate at a ratio of 1:2, mixed on a plate shaker, then incubated at room temperature for 10 minutes. Luminescence was measured using an Envision plate reader (Perkin Elmer) and the relative luminescence at each compound concentration, compared to DMSO alone, was calculated. GI50 were determined using a 4-parameter curve fit in Dotmatics (Bishops Stortford, UK).
Protocol for OCI-Ly3: as §6, §7, §8, §9, §10, §11, §12, §13, §14
Protocol for SU-DHL-4: as §6, §7, §8, §9, §10, §11, §12, §13, §14

In the case of `C[C@H]1C[C@@H](O)CN(c2ncc(Cl)c(Nc3ccc4c(c3)n(CCC(C)(C)O)c(=O)n4C)n2)C1` (relative stereo) [compound 5, 5-((5-Chloro-2-(3-hydroxy-5-methylpiperidin-1-yl)pyrimidin-4-yl)amino)-3-(3-hydroxy-3-methylbutyl)-1-methyl-1,3-dihydro-2H-benzo[d]imidazol-2-one], the fraction unbound in the series “in vitro [1]” is 0.37. Further, the IC50 – broadly, the midpoint of a concentration-inhibition curve – on human BCL6 BTB domain [2] (BCL6 TR-FRET IC50, geometric mean, BCOR-AF633 peptide, 2 h incubation) is 95 nM; on human BCL6 BTB domain [2] (setting [10]) it was 101 nM and 99.6 nM and 94.3 nM and 86.2 nM; on human BCL6 BTB domain [2] (BCL6 TR-FRET pIC50 mean, mean of replicates), 95.1 nM. Further, the microsomal CLint (usually the capacity of the preparation to metabolise the compound, expressed as a volume cleared per time) at 1 μM is 122 µL/min/mg in series [3], 14 µL/min/mg in [4] and 28 µL/min/mg in series [8]. Moreover, in [5], the chromatographic logD amounted to 2.3. In the series “in vitro [6]” (PAMPA), the Papp (in general, the rate of passage across a membrane or cell layer, normalised by area and donor concentration) is 23 ×10⁻⁶ cm/s. Also, the figures for the greatest degradation seen (Dmax) in series [7] (setting [11]) and in series [7] (setting [12]) were 91% and 88.8%, respectively. The “MSD degrader assay [OCI-Ly1] Dmax” value in series [7] (OCI-Ly1 cells, 2 h) worked out at 89%. For the same molecule, the “MSD degrader assay [OCI-LY1] pDC50 mean” value in [7] (mean of replicates) stood at 7.4626. Further, the DC50 was 12.4 nM in series [7] (read-out: Calculated free DC50 [OCI-Ly1], DC50 corrected with fu,media); 66 nM and 18 nM in series [7] (setting [13]); 35 nM and 34.5 nM in series [7] (setting [14]). For the same molecule, in series [7] (single replicate values), the “MSD degrader assay [OCI-LY1] Dmax individual replicates” value was 86.653%. The solubility kinetic at 20 h in “NMR solubility assay” was 40 µM (≈ 19 µg/mL).

Consider `C[C@@H]1C[C@H](O)CN(c2ncc(Cl)c(Nc3ccc4c(c3)c3c(c(=O)n4C)OCC(F)(F)[C@H](C4CC4)N3)n2)C1` [12b CCT373567, (S)-10-((5-Chloro-2-((3S,5R)-3-hydroxy-5-methylpiperidin-1-yl)pyrimidin-4-yl)amino)-2-cyclopropyl-3,3-difluoro-7-methyl-1,2,3,4-tetrahydro-[1,4]oxazepino[2,3-c]quinolin-6(7H)-one], for which the DC50 (on BCL6 in Karpas 422 cells; in series [7] (setting [13]); in series [7] (setting [14])) was > 2000 nM in each case. Moreover, the GI50 – broadly, the concentration that inhibits growth by half – with SU-DHL-4 turned out to be 820 nM; with OCI-Ly3, 2140 nM; with Karpas 422, 38 nM; in the series with HT, 362 nM; with OCI-Ly1 it was 83 nM. The “BCL6 TR-FRET pIC50 mean” value at human BCL6 BTB domain [9] (mean of replicates) is 8.5554. Further, the IC50 is 2.8 nM at human BCL6 BTB domain [9] (read-out: BCL6 TR-FRET IC50, geometric mean, BCOR-AF633 peptide, 2 h incubation); 2.8 nM on human BCL6 BTB domain [9] (read-out: BCL6 TR-FRET IC50 individual replicates, single replicate values); 3.9 nM and 2.4 nM (2×) and 2.6 nM against human BCL6 BTB domain [2] (setting [10]). In addition, the microsomal CLint at 0.5 h, 1 µM in series [3] turned out to be 90 µL/min/mg. Further, the microsomal CLint at 1 μM in series [4] and in series [8] was 3 µL/min/mg each time. For the same molecule, the “CLint (RLM)” value in [4] is “low clearance”. Moreover, the chromatographic logD in series [5] turned out to be 2.9. Moreover, the “PAMPA (pH 7.4)” value in “in vitro [6]” is given as 16 ×10–6 cm s–1. In addition, the Dmax in series [7] (setting [11]) and in series [7] (setting [12]) was < 30% each time. For the same molecule, the “degradation of BCL6 (in words)” value is given as “no degradation was seen” in series [7] and “nondegrading isomer” in [7] (listed as 12b). Besides, in series [7] (OCI-Ly1 cells, 2 h), the “MSD degrader assay [OCI-Ly1] Dmax” value is reported as > 30%. Further, the “CLint (HLM)” value in series [8] was “low clearance”.
